Data reported in US20040033967A1, “Alkylated hexitol nucleoside analogues and oligomers thereof” (priority 2000, published 2004).

Tests used:
Format in all cases: binding
HNA complement = experiment: Tm of hexameric hexitol sequences hybridised with HNA complement; conditions: hexamers
From the text: (§1) Hybridisation is the sequence specific base pair hydrogen bonding of bases of the oligonucleotide to bases of target RNA or DNA Such base pairs are said to be complementary to one another. In determining the extent of hybridization of an oligonucleotide to a complementary nucleic acid, the relative ability of an oligonucleotide to bind to the complementary nucleic acid may be compared by determining the melting temperature of a particular hybridisation complex. The melting temperature (Tm), a characteristic physical property of double helices, denotes the temperature in degrees centigrade, at which 50% helical (hybridized) versus coil (unhybridized) forms are present. Tm is measured by using the UV spectrum to determine the formation and breakdown (melting) of the hybridisation complex. Base stacking which occurs during hybridisation, is accompanied by a reduction in UV absorption (hypochromicity). Consequently, a reduction […]. The higher the Tm, the greater the strength of the bonds between the strands.
As an example a study with pyrimidine hexamers was done as depicted in Table 2. […]

RNA complement = experiment: Tm of hexameric hexitol sequences hybridised with RNA complement; conditions: hexamers
From the text: as §1
However, this increase is less pronounced than the increase in thermal stability obtained by modifying the nucleobase with a methyl substituent in the 5-position (ΔTm=+1.1° C./modification), (compare entry A and D). […]

complementary RNA = experiment: Thermal stability of octameric HNA sequences versus RNA; conditions: octamers versus RNA, entries C and D
From the text: as §1, with “strands. The results in Table 3 confirm the results of Table 2 (example 35). […] The effect is however less than for the duplexes containing ANA or those containing the 5-methyl modification (entry E with a ΔTm/modification=1° C. and C with ΔTm/modification=2° C., respectively). […]” for “strands.”

| SMILES | ΔTm compared to the unmodified HNA:HNA duplex (HNA complement; complementary HNA, Table 2) | ΔTm compared to HNA, pairing with RNA sequences (RNA complement) | ΔTm compared to HNA, pairing with hexitol oligonucleotides (HNA complement; hexitol (HNA, ANA) complements) | increase in Tm compared with the hexitol T reference (complementary RNA) [°C] |
| --- | --- | --- | --- | --- |
| CO[C@@H]1[C@H](O)[C@@H](CO)OC[C@H]1n1ccc(=O)[nH]c1=O [1.1, 1,5-anhydro-3-O-methyl-2-(uracil-1-yl)-2-deoxy-altro-hexitol] | +0.6 ° C./modification | – | – | – |
| COC1O[C@H](CO)[C@@H](O)C[C@@H]1n1cc(C)c(=O)[nH]c1=O (stereo partly drawn) [2.2, Methyl 2-(thymin-1-yl)-2,3-dideoxy-D-arabino-hexopyranoside] | – | ≈ +0.3 ° C./modification | ≈ +0.8 ° C./modification | 1.6 |
